Measured values reported in PMC4072508, “Genome-Wide Prediction and Validation of Peptides That Bind Human Prosurvival Bcl-2 Proteins” (PLoS Computational Biology, 2014).
Read-outs that look alike come from different tables or passages of the source. No end group written: not given here.

Tests used:
Test in all cases: Fluorescence polarization direct binding
Bcl-2 = biological target: T1, Bcl-2 (Homo sapiens, UniProt P10415, DEL53-91)
T1 construct: myc- Bcl-2 FP; made in house
Description: (§1) Peptides were purified by reverse-phase HPLC using a C18 column and a linear water/acetonitrile gradient. We re-analyzed the purified peptide by mass spectrometry if there was not a single well-defined peak in HPLC chromatogram.
(§2) Fluorescence polarization (FP) assays were done at 25°C in assay buffer (20 mM NaPO4, 50 mM NaCl, 1 mM EDTA, 0.001% Triton X (v/v), pH 7.8). […] For all FP experiments, the total well volume was 120 µl. […] Anisotropy was measured using a Spectramax M5 plate reader from Molecular Devices.
(§3) Direct binding curves were fit using Pylab/Scipy/Optimize to a single-site binding model utilized previously.
(§4) ^1Best-fit KD values determined by combining all replicate titration curves and fitting to a direct binding model (see Methods). […] Values with an X followed by a number indicate the highest concentration (the number, in nM) for which signal was measured yet no binding was detected.

Bcl-w = biological target: T2, Bcl-w (Homo sapiens, UniProt Q92843, Q133R)
T2 construct: myc-Bcl-w SPOT array & FP; made in house
T2 sequence (Q92843 with tags, fused parts or gaps Q133R): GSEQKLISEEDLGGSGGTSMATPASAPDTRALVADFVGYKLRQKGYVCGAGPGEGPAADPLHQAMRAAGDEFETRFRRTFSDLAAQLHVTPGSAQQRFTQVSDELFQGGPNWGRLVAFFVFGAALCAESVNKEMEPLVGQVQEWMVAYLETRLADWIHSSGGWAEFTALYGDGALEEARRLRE
Description: as §1, §2, §3, §4

Bcl-xL = biological target: T3, Bcl-xL (Homo sapiens, UniProt Q07817)
T3 construct: myc-Bcl-xL SPOT array & FP; made in house
T3 sequence (Q07817 with tags, fused parts or gaps): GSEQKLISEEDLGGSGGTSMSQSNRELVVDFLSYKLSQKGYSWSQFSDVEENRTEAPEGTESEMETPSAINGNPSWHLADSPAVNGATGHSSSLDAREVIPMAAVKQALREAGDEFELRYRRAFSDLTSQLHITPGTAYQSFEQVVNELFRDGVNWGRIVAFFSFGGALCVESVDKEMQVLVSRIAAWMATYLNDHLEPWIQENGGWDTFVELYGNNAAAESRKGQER
Description: as §1, §2, §3, §4

Bfl-1 = biological target: T4, Bfl-1 (Homo sapiens, UniProt Q16548)
T4 construct: myc- Bfl-1 SPOT array & FP; made in house
T4 sequence (Q16548 with tags, fused parts or gaps): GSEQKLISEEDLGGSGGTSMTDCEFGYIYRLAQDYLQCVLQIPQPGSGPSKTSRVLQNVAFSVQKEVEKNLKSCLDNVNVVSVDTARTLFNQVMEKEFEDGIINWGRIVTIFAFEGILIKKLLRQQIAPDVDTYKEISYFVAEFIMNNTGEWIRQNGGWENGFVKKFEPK
Description: as §1, §2, §3, §4

Mcl-1 = biological target: T5, Mcl-1 (Homo sapiens, UniProt Q07820)
T5 construct: myc-Mcl-1 SPOT array & FP; made in house
T5 sequence (Q07820 with tags, fused parts or gaps): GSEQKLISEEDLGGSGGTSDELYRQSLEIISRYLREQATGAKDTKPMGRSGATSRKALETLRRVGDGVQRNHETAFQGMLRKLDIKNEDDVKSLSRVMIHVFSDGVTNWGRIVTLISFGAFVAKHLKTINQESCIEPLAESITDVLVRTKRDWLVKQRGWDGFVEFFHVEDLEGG
Description: as §1, §2, §3, §4

[1] = FP direct binding, 10 nM FAM-labeled peptide, receptor titrated, 25°C, pH 7.8, fit of all replicate titrations, X+number in a cell = highest concentration (nM) measured with no binding detected, given here as >, SPNS1 fit to raw fluorescence, read-out: Best-fit KD, Bcl-2
[2] = benchmark classification of peptides newly characterized in this study, read-out: Binder class, Bcl-2
[3] = FP direct binding, 10 nM FAM-labeled peptide, receptor titrated, 25°C, pH 7.8, fit of all replicate titrations, X+number in a cell = highest concentration (nM) measured with no binding detected, given here as >, SPNS1 fit to raw fluorescence, read-out: Best-fit KD, Bcl-w
[4] = benchmark classification of peptides newly characterized in this study, read-out: Binder class, Bcl-w
[5] = FP direct binding, 10 nM FAM-labeled peptide, receptor titrated, 25°C, pH 7.8, fit of all replicate titrations, X+number in a cell = highest concentration (nM) measured with no binding detected, given here as >, SPNS1 fit to raw fluorescence, read-out: Best-fit KD, Bcl-xL
[6] = benchmark classification of peptides newly characterized in this study, read-out: Binder class, Bcl-xL
[7] = FP direct binding, 10 nM FAM-labeled peptide, receptor titrated, 25°C, pH 7.8, fit of all replicate titrations, X+number in a cell = highest concentration (nM) measured with no binding detected, given here as >, SPNS1 fit to raw fluorescence, read-out: Best-fit KD, Bfl-1
[8] = benchmark classification of peptides newly characterized in this study, read-out: Binder class, Bfl-1
[9] = Binder class, Mcl-1, benchmark classification of peptides newly characterized in this study
[10] = FP direct binding, 10 nM FAM-labeled peptide, receptor titrated, 25°C, pH 7.8, fit of all replicate titrations, X+number in a cell = highest concentration (nM) measured with no binding detected, given here as >, SPNS1 fit to raw fluorescence

T1 sequence (P10415 with tags, fused parts or gaps DEL53-91): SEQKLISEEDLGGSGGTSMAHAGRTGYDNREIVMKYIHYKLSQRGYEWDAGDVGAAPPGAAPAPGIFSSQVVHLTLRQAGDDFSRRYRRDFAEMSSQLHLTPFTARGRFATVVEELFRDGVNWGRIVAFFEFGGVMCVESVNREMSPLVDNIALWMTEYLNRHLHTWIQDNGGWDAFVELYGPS

Row | Kd (Bcl-2; [1]) | Kd (Bcl-2; [2]) | Kd (Bcl-w; [3]) | Kd (Bcl-w; [4]) | Kd (Bcl-xL; [5]) | Kd (Bcl-xL; [6]) | Kd (Bfl-1; [7]) | Kd (Bfl-1; [8]) | Kd (Mcl-1; [9]) | Kd (Mcl-1; [10]) | Substance
1 | 34 nM | < 1000 nM | > 1800 nM | > 10000 nM | > 100000 nM | > 10000 nM | > 4670 nM | > 10000 nM | > 10000 nM | > 4000 nM | AWGKFGGAFARYADEMKEIQERQ-NH2 [PURB]
2 | 70 nM | > 10000 nM | 907 nM | > 10000 nM |  | < 1000 nM | 1600 nM | 1000 to 10000 nM |  |  | DARDYAVVLRKYADKIYSISMKH-NH2 [FOLH1]
3 | 86 nM | < 1000 nM | 249 nM | < 1000 nM | 1490 nM | 1000 to 10000 nM | > 10000 nM | > 10000 nM | 1000 to 10000 nM | 2380 nM | ELQELARKLQELADASENLLTEN-NH2 [TXNDC11]
4 | 6090 nM | 1000 to 10000 nM | 749 nM | 1000 to 10000 nM | 3060 nM | 1000 to 10000 nM | > 5590 nM | > 10000 nM | < 1000 nM | > 2430 nM | EVLAGPLAQRLSHIAEDVGRLVKKSR-NH2 [ARHGAP4]
5 | 264 nM | < 1000 nM | 64 nM | < 1000 nM |  |  | 43 nM | < 1000 nM | 1000 to 10000 nM |  | FIQSLAAMLKQYADKLEFMHILT-NH2 [CASP3]
6 | 1410 nM | 1000 to 10000 nM | 2490 nM | 1000 to 10000 nM | 2050 nM | 1000 to 10000 nM | > 4670 nM | > 10000 nM | < 1000 nM | 1460 nM | FTGNNTAVQELKRVSEQFTATFRRKA-NH2 [TUBB4Q]
7 | 237 nM | < 1000 nM | 18 nM | < 1000 nM | 1460 nM | 1000 to 10000 nM | 182 nM | < 1000 nM | < 1000 nM | 22 nM | GDSVLARMLRELGDSLRRPQLRL-NH2 [SLC19A1]
8 | 49 nM | < 1000 nM | 992 nM | < 1000 nM |  | 1000 to 10000 nM | 99 nM | < 1000 nM | < 1000 nM | 69 nM | GSGAWGLLLRRVGDDVLVHLLAR-NH2 [TERT]
